Test results published in paper PMC5570892, “Indole-based perenosins as highly potent HCl transporters and potential anti-cancer agents” (Scientific Reports, 2017).

Experiments:
[1] = Stability in vesicles by UV-Vis; format: physicochemical; settings: POPC lipid solution, 2 hours
Experimental: The spectra obtained over the course of 72 hours for 1d, 2 and 4-8 show similar trends, 3 was not tested because it was unavailable. All spectra show a decrease in the peak at around 400 nm after 6 hours and an increase in the peak at around 300 nm after 72 hours. These changes in spectra […]
72 hours. The absorbance for 6 decreases dramatically for the readings after 6 hours because most […]
S7.2 Stability in Vesicles
Stability studies were performed for the perenosins in vesicles using UV-Vis spectroscopy to probe the lifetime of compounds 1d and 2-8 at pH 7.2 and pH 4.6. Unilamellar vesicles were prepared using previously reported literature procedures7-9. A lipid film of POPC (1-palmitoyl-2-oleoyl-sn-glycero-3-phosphocholine) was prepared from a chloroform solution under reduced pressure and then dried under vacuum for 4 or more hours. The lipid film was rehydrated by vortexing with a solution of phosphate buffered (5 mM) sodium chloride (500 mM). The lipid suspension was then subjected to 9 freeze-thaw cycles and left to rest at room temperature for 30 minutes. After this, the suspension was extruded 25 times through a 400 nm polycarbonate membrane resulting in unilamellar vesicles of a mean diameter of 400 nm. […]
Figure S65. Absorbance spectra taken over 2 hours of 1d (25 mM) in a sodium chloride (500 mM) phosphate buffered (5 mM) lipid solution. a) pH 7.2 b) pH 4.6 […]

[2] = Stability in aqueous solution by UV-Vis; format: physicochemical; settings: hexafluorophosphate buffered DMSO:water 50:50, pH 7.4, after 6 hours
Experimental: S7.1 Stability in Aqueous Solution
Stability studies were performed for the perenosins in aqueous solution using UV-Vis spectroscopy to probe the lifetime of compounds 1d and 2-8 over the course of the transport experiments. The receptors (10 μL, 25 mM) were added to a hexafluorophosphate buffered (100 mM) DMSO:water 50:50 solution (4990 μL) and the pH was adjusted to either 7.2 or 4.6 using hexafluorophosphoric acid. Spectra were collected at 1 minute intervals over a period of 30 minutes.
Figure S50. Absorbance spectra taken over 30 minutes of 1d (25 mM) in a hexafluorophosphate buffered (100 mM) DMSO:water 50:50 mixture. a) pH 7.2 b) pH 4.6 […]
Figure S51. Absorbance spectra taken over 30 minutes of 2 (25 mM) in a hexafluorophosphate […]
The spectra obtained at pH 7.2 for compounds 1d and 2-8 show no notable change in the […]
conditions. However, the spectra obtained at pH 4.6 for compounds 1d and 2-4 show a decreasing peak at ~400 nm corresponding to the perenosins, and an increasing peak at ~300 nm corresponding to the breakdown product (both are marked with an arrow). The change in spectra […]
Spectra were collected periodically over 72 hours to monitor the change in the UV -vis absorbance.
Figure S58. Absorbance spectra taken periodically over 72 hours of 1d (25 mM) in a hexafluorophosphate buffered (100 mM) DMSO:water 50:50 mixture at pH 7.4 […]

[3] = Cationophore coupled KCl efflux ISE assay (valinomycin or monensin); format: biochemical; settings: perenosins 0.1 mol%, prodigiosin 0.01 mol%, monensin 0.1 mol%, pH 7.2
Experimental: Herein, we employed two recently reported complementary cationophore coupled assays[19] to unambiguously confirm H^+/Cl^− symport facilitated by perenosins is a strictly inseparable process. Briefly, unilamellar vesicles were prepared with an internal solution of KCl (300 mM) and an external solution of K2SO4 (150 mM), buffered to pH 7.2 with potassium phosphate salts (5 mM). The naturally occurring cationophores valinomycin and monensin were either added alone, or in combination with a perenosin and the resulting chloride efflux, driven by a large chloride concentration gradient, was monitored using a chloride ISE. […] In contrast, monensin functions as an electroneutral transporter. […]
Figure S130. […] The final chloride efflux reading was taken a t 9 mins and was used as the 100% chloride efflux value. […]
The lipid stock solution was diluted with the external buffer solution to a standard volume (5 mL), to afford a solution with a lipid concentration of 1 mM. […] The compounds were added as a DMSO solution (0.1 mol% (with respect to lipid), 10 μL) to start the experiment and the resulting chloride efflux was monitored using a chloride selective electrode over 5 minutes. After this time, detergent (50 μL of Triron X-100 (11 w%) in H2O:DMSO (7:1 v/v)) was added to lyse the vesicles and after 7 minutes a final chloride efflux reading was taken. […]

SMILES	chloride efflux coupled to monensin [3]	other results
CCCCCc1cc(/N=C/c2[nH]c(C)cc2C)c2[nH]ccc2c1 [Perenosin 1d]		stability in vesicles at pH 7.2 [1]: stable
CCCCCc1cc2cc(C)cc(/N=C/c3[nH]c(C)c(CCCCC)c3C)c2[nH]1 [Perenosin 6]		solubility during 72 h stability study [2]: poor solubility
CCCCCc1cc(/N=C/c2[nH]c3ccccc3c2C)c2[nH]ccc2c1 [Perenosin 7]	do not facilitate chloride transport	
CCCCCc1cc2cc(C)cc(/N=C/c3[nH]c4ccccc4c3C)c2[nH]1 [Perenosin 8]	do not facilitate chloride transport	
